For data set [1], the system named is cytoplasmic protein levels in Molm-13 cells. In words: Western blot of cytoplasmic proteins. It counts as cell-based. The following applies: 3 days. The protocol:
(§1) Figure S4. The cytoplasmic protein levels after treatment with Cpd-1 for 3 days. (A) In contrast to the protein
(§2) me2, ENL and AFF4 in MV4;11 cells, except for ENL at 15 µM.
(§3) (1 picture or pasted object on this page, not shown here)

Data set [2] relates to cytoplasmic protein levels in MV4;11 cells. In words: Western blot of cytoplasmic proteins. The data set is classed as cell-based. The following applies: 3 days, except for ENL at 15 µM. As to the method:
as §1, §2, §3
Background: A western blot detects proteins with antibodies after separation by electrophoresis.

The test system of data set [3] is H3K79me2 at gene promoters in Molm-13 cells. Nature of the data set: Chromatin immunoprecipitation (ChIP)-qPCR. The data set is classed as cell-based. As to the method: Next, compound 1 was tested for its ability to change expression of characteristic MLL-r leukemia genes HoxA9, Meis1 and Myc. Myc is also overexpressed in a broad range of AML and other cancers. […] (Figure S5), presumably because SEC is not recruited there.
Chromatin immunoprecipitation. […] Cells were lysed with nuclear lysis buffer and sonicated to ~100-1000 bp fragments, which was incubated at 4 °C overnight with the H3K79me2 antibody (#5427, Cell signaling) and IgG (C15410206, Diagenode). Protein A/G Magnetic Beads (10 µL, Novus Biologicals) were added and incubated for 2 h. The beads were washed 3x with RIPA buffer and 2x with TE buffer. DNA on the beads was eluted for 2 hours at 68 °C in 100 μL of an elution buffer (20 mM Tris pH 7.5, 5 mM EDTA, 50 mM NaCl, 1% SDS, 50 μg/ml proteinase K) (2x), and purified using a ChIP DNA Clean & Concentrator kit (Novus Biologicals). qPCR was done using the method described above.
A general note: In qPCR the cycle at which signal appears reflects the starting amount.

The subject of the next data set is Molm-13 cells. Nature of the data set: Flow cytometry for CD14 and CD11b (differentiation). It counts as cell-based, human. The following applies: 5 μM for 5 days. As to the method: Compound 1 (5 μM for 5 days) induced significant differentiation, with more cell populations expressing CD14 and CD11b, two cell surface proteins for macrophages/monocytes (Figure 5B).
Flow cytometry. For Annexin V apoptosis assay, 10^5 cells/ml were incubated with increasing concentrations of a compound for 5 days. Apoptosis was determined using the FITC Annexin V Apoptosis Detection Kit I (BD Bioscience) using the manufacturer's protocol. For other FACS assays, cells were labeled with fluorochrome-conjugated monoclonal antibodies against human CD14 and CD11b (BD Biosciences) according to the manufacturer's recommendation. Cells were analyzed using a FACS Calibur (BD Biosciences/Applied Biosystems) and data were processed using the program Flowjo (version7.6.5).

For data set [4], the system named is AF9/ENL-DOT1L/AF4/AFF4 interactions. In words: Biochemical assays of PPIs between AF9/ENL and DOT1L/AF4/AFF4 (overall). The following applies: for IC50: range over the PPIs tested, read-out: IC50s against AF9/ENL-DOT1L/AF4/AFF4 interactions (range over PPIs). It counts as binding, human. The protocol: Because both FP and Alpha assays are unsuitable for studies of AF9/ENL binding kinetics, we compared the IC50s of the inhibitor with the Kds of the PPIs (Table 1).
Alpha assays. Alpha assays were developed using Perkin-Elmer AlphaLisa anti-MBP kit, which contains streptavidin donor beads and anti-MBP acceptor beads. The assay was performed using a MBP-protein (5 nM), a biotinylated peptide (40 nM), and increasing concentrations of a compound in 25 µL buffer (PBS with 0.5 % BSA, pH 7.5) in 384-well plates according to the manufacturer's protocol and measured with a Tecan SPARK microplate reader. Data were imported into Prism (version 5.0), and IC50 values from 3 independent experiments with standard deviation were obtained by using a standard dose-response curve fitting.
Fluorescence polarization assay. It was performed in 96-well black microplates with each well containing a Fluorescein-labeled peptide (2 nM) and increasing concentration of a AF9/ENL protein in a buffer (20 mM HEPES, pH 7.5, 0.01% Triton X-100, 100 µL) for Kd determination. For IC50 determination, a Fluorescein-labeled peptide (2 nM), AF9/ENL protein (100 nM) and increasing concentration of a compound in the same buffer were placed in each well. Upon incubation of 1h, the FP value of each well was determined using a Tecan SPARK microplate reader. Data were similarly processed to obtain Kd or IC50 values.

In data set [5] the test system is MLL-AF9-bound DOT1L and AF4 in Molm-13 cells. In words: Co-immunoprecipitation with N-terminal MLL antibody. It counts as cell-based. As to conditions: 2 days. The protocol:
Next, we investigated how compound 1 affects these transcription cofactors in the nucleus, where they regulate gene expression. […] DOT1L inhibitor EPZ4777 [25] reduced the methylation levels of H3K79, but not other proteins (Figure 3B). […] In this regard, despite lack of activity against DOT1L, compound 1 can mimic EPZ4777 to reduce H3K79 methylation.
Co-immunoprecipitation. 10^8 Molm-13 cells were treated with a compound or DMSO for 48 hr. Co-immunoprecipitation of the nuclear protein extracts (450 µg of total protein from 10^8 molm-13 cells) was performed using a Nuclear Complex Co-IP Kit (#54001, Active Motif). Briefly, 3 µg of MLL-N Rabbit mAb (#14689, Cell signaling) and 100 µL Protein G Agarose Beads (#37478, Cell signaling) were added and incubated with the nuclear extractions overnight at 4 °C. The Agarose beads with captured antibody and relevant protein complexes were isolated, washed and subjected to Western blot for protein detection.

Data set [6] is described as follows: Tolerability in xenograft study (body weight, overt toxicity). It counts as in vivo. As to the method: In vivo antitumor activity of compound 1 was evaluated in a commonly used mouse model of MLL-r leukemia, [26]. 10^7 MV4;11 cells in 0.1 mL of saline and Matrigel (1:1) were injected subcutaneously into NOD-SCID mice, which can develop palpable tumors in ~2 weeks.
In vivo antitumor studies. All of the mouse studies were conducted in strict compliance with an IRB-approved protocol. NOD-SCID mice (4 to 6 weeks old, from Jackson lab) were obtained and maintained under specific pathogen-free conditions. 10^7 MV4;11 cells in medical grade saline and Matrigel (1:1, 0.1 mL) were inoculated subcutaneously and palpable tumors (2-3 mm in diameter) were developed in ~ 2 weeks. Mice were treated with compound 1 (15 mg/kg/day for 10 days) in saline (0.1 mL) administered intraperitoneally. Tumors were measured every 2 days and estimated by using the formula a×b^2/2.

A further data set concerns the target LSD1 (Homo sapiens, UniProt O60341). In words: LSD1 enzyme inhibition. The data set is classed as biochemical. As to conditions: at 100 µM (Figure S3: 30 or 100 µM). As to the method: Inhibition of DOT1L, LSD1 and p300 was performed using our previously reported methods, [37], [38].
LSD1, and p300 histone acetyltransferase at 30 or 100 µM, using our previous reported methods [Ref. 36, 37,
as §3

Like-named read-outs stand apart in the source and are kept apart here.

Consider `CC(C)(C)c1ccc(-n2cc(C(=O)NC3CCNCC3)nc2-c2ccccc2)cc1` [Compound 1], for which the “Cytoplasmic levels of H3K79me1 and me2, ENL and AFF4” value in data set [1] is reported as “did not significantly reduce”. In addition, in data set [2], the “Cytoplasmic protein levels of H3K79me1 and me2, ENL and AFF4” value is “did not significantly reduce”. Besides, the “H3K79-Me2 in a non-transcribed DNA region” value in data set [3] is listed as “did not significantly reduce H3K79-Me2”. Also, in data set [3] (5 μM for 4 days), the “H3K79me2 in the gene promoters of HoxA9 and Myc” value is recorded as “decreased levels of H3K79me2”. The “Differentiation: cells expressing CD14 and CD11b” value in the data set on Molm-13 cells is “significantly more cells expressing high levels of CD14 and CD11b”. Besides, in data set [4] (comparison of IC50s with Kds of the PPIs), the Mode of inhibition entry is “non-competitive mode of inhibition”. For the same compound, the figures for the IC50 in data set [4] (listed as Compound-1) and in data set [4] were 900 to 3500 nM and 940 to 3500 nM, respectively. Moreover, the “MLL-AF9-bound DOT1L and AF4 (Co-IP)” value in data set [5] is “dose-dependent decrease of MLL-AF9-bound DOT1L and AF4”. In addition, the Body weight result in data set [6] (15 mg/kg for Day 1-10) is on record as “did not cause significant weight losses”. Moreover, the Overt toxicity entry in data set [6] (mouse model of MLL-r leukemia, 15 mg/kg) is given as “without overt toxicity”. Moreover, the “Inhibition of LSD1 enzyme activity” value on LSD1 is “did not significantly inhibit”.

The values above are taken from article PMC8344022, “Small-molecule inhibitor of AF9/ENL-DOT1L/AF4/AFF4 interactions suppresses malignant gene expression and tumor growth” (Theranostics, 2021).
